Laboratory results published in US10227344B2, “CK2 inhibitors, compositions and methods thereof” (Polaris Pharmaceuticals, Inc., priority 2016, dated 2019).

How the values were obtained:
Format in all cases: cell-based
H1299 = experiment: Cancer cell panel, cell viability (resazurin): NSCLC, H1299; conditions: 72 hours, labelled drug combined with Example 3
NAMALWA = experiment: Cancer cell panel, cell viability (resazurin): Burkitt's Lymphoma, NAMALWA; conditions: 72 hours, labelled drug combined with Example 3
Procedure: (§1) Cells were plated in 96-well plates and treated for 72 hours with a serially diluted CK2 inhibitor or anti-cancer drug or their combination. The suspension cell lines were treated right after plating, while the adherent cells were allowed to attach overnight prior to the start of the treatment.
(§2) Cell viability was determined by adding resazurin to cell cultures and measuring fluorescence with a plate reader. Relative cell viability was calculated by dividing the cell viability signal from a test sample by that of a non-treated control. […] Bliss Independence and Highest Single Agent models were used to determine if there is synergy, additivity or antagonism between the CK2 inhibitor and an anti-cancer drug.

PC3 = experiment: Cancer cell panel, cell viability (resazurin): Prostate, PC3; conditions: 72 hours, labelled drug combined with Example 3
Procedure: as §1, §2

HL60 = experiment: Cancer cell panel, cell viability (resazurin): Leukemia, HL60; conditions: 72 hours, labelled drug combined with Example 3
DLD-1 = experiment: Cancer cell panel, cell viability (resazurin): Colon, DLD-1; conditions: DLD-1 (Colon), 72 hours; labelled drug combined with Example 3
LoVo = experiment: Cancer cell panel, cell viability (resazurin): Colon, LoVo; conditions: 72 hours, labelled drug combined with Example 3
H460 = experiment: Cancer cell panel, cell viability (resazurin): NSCLC, H460; conditions: 72 hours, labelled drug combined with Example 3
Procedure: as §1, §2

WM-115 = experiment: Cancer cell panel, cell viability (resazurin): Melanoma, WM-115; conditions: WM-115 (Melanoma), 72 hours; labelled drug combined with Example 3
Caki-2 = experiment: Cancer cell panel, cell viability (resazurin): Renal, Caki-2; conditions: Caki-2 (Renal), 72 hours; labelled drug combined with Example 3
Procedure: as §1, §2

SkBr-3 = experiment: Cancer cell panel, cell viability (resazurin): Breast, SkBr-3; conditions: SkBr-3 (Breast), 72 hours; labelled drug combined with Example 3
BT-20 = experiment: Cancer cell panel, cell viability (resazurin): Breast, BT-20; conditions: BT-20 (Breast), 72 hours; labelled drug combined with Example 3
Procedure: as §1, §2

Colo205 = experiment: Cancer cell panel, cell viability (resazurin): Colon, Colo205; conditions: 72 hours, labelled drug combined with Example 3
Procedure: as §1, §2

A375 = experiment: Cancer cell panel, cell viability (resazurin): Melanoma, A375; conditions: 72 hours, labelled drug combined with Example 3
LnCap = experiment: Cancer cell panel, cell viability (resazurin): Prostate, LnCap; conditions: 72 hours, labelled drug combined with Example 3
U87MG = experiment: Cancer cell panel, cell viability (resazurin): Glioblastoma, U87MG; conditions: 72 hours, labelled drug combined with Example 3
Caov-3 = experiment: Cancer cell panel, cell viability (resazurin): Ovarian, Caov-3; conditions: Caov-3 (Ovarian), 72 hours; labelled drug combined with Example 3
Procedure: as §1, §2

Daudi = experiment: Cancer cell panel, cell viability (resazurin): Burkitt's Lymphoma, Daudi; conditions: 72 hours, labelled drug combined with Example 3
A2780 = experiment: Cancer cell panel, cell viability (resazurin): Ovarian, A2780; conditions: 72 hours, labelled drug combined with Example 3
U266 = experiment: Cancer cell panel, cell viability (resazurin): multiple myeloma, U266; conditions: 72 hours, labelled drug combined with Example 3
786-O = experiment: Cancer cell panel, cell viability (resazurin): Renal, 786-O; conditions: 786-O (Renal), 72 hours; labelled drug combined with Example 3
Procedure: as §1, §2

Mia-Paca-2 = experiment: Cancer cell panel, cell viability (resazurin): Pancreatic, Mia-Paca-2; conditions: Mia-Paca-2 (Pancreatic), 72 hours; labelled drug combined with Example 3
Procedure: as §1, §2

MOLT4 = experiment: Cancer cell panel, cell viability (resazurin): Leukemia, MOLT4; conditions: 72 hours, labelled drug combined with Example 3
HCT116 = experiment: Cancer cell panel, cell viability (resazurin): Colon, HCT116; conditions: 72 hours, labelled drug combined with Example 3
Panc-1 = experiment: Cancer cell panel, cell viability (resazurin): Pancreatic, Panc-1; conditions: Panc-1 (Pancreatic), 72 hours; labelled drug combined with Example 3
Procedure: as §1, §2

ZR-75-1 = experiment: Cancer cell panel, cell viability (resazurin): Breast, ZR-75-1; conditions: ZR-75-1 (Breast), 72 hours; labelled drug combined with Example 3
MDA-MB-157 = experiment: Cancer cell panel, cell viability (resazurin): Breast, MDA-MB-157; conditions: MDA-MB-157 (Breast), 72 hours; labelled drug combined with Example 3
H23 = experiment: Cancer cell panel, cell viability (resazurin): NSCLC, H23; conditions: 72 hours, labelled drug combined with Example 3
Procedure: as §1, §2

SKOV-3 = experiment: Cancer cell panel, cell viability (resazurin): Ovarian, SKOV-3; conditions: SKOV-3 (Ovarian), 72 hours; labelled drug combined with Example 3
Procedure: as §1, §2

H1975 = experiment: Cancer cell panel, cell viability (resazurin): NSCLC, H1975; conditions: 72 hours, labelled drug combined with Example 3
Procedure: as §1, §2

Raji = experiment: Cancer cell panel, cell viability (resazurin): Burkitt's Lymphoma, Raji; conditions: 72 hours, labelled drug combined with Example 3
SK-MEL-24 = experiment: Cancer cell panel, cell viability (resazurin): Melanoma, SK-MEL-24; conditions: SK-MEL-24 (Melanoma), 72 hours; labelled drug combined with Example 3
T47D = experiment: Cancer cell panel, cell viability (resazurin): Breast, T47D; conditions: 72 hours, labelled drug combined with Example 3
EOL-1 = experiment: Cancer cell panel, cell viability (resazurin): Leukemia, EOL-1; conditions: EOL-1 (Leukemia), 72 hours; labelled drug combined with Example 3
MeWO = experiment: Cancer cell panel, cell viability (resazurin): Melanoma, MeWO; conditions: 72 hours, labelled drug combined with Example 3
MDA-MB-231 = experiment: Cancer cell panel, cell viability (resazurin): Breast, MDA-MB-231; conditions: MDA-MB-231 (Breast), 72 hours; labelled drug combined with Example 3
Procedure: as §1, §2

SK-MEL-3 = experiment: Cancer cell panel, cell viability (resazurin): Melanoma, SK-MEL-3; conditions: SK-MEL-3 (Melanoma), 72 hours; labelled drug combined with Example 3
A549 = experiment: Cancer cell panel, cell viability (resazurin): NSCLC, A549; conditions: 72 hours, labelled drug combined with Example 3
H2122 = experiment: Cancer cell panel, cell viability (resazurin): NSCLC, H2122; conditions: 72 hours, labelled drug combined with Example 3
Procedure: as §1, §2

MDA-MB-453 = experiment: Cancer cell panel, cell viability (resazurin): Breast, MDA-MB-453; conditions: MDA-MB-453 (Breast), 72 hours; labelled drug combined with Example 3
Procedure: as §1, §2

ACHN = experiment: Cancer cell panel, cell viability (resazurin): Renal, ACHN; conditions: 72 hours, labelled drug combined with Example 3
BxPC3 = experiment: Cancer cell panel, cell viability (resazurin): Pancreatic, BxPC3; conditions: 72 hours, labelled drug combined with Example 3
Procedure: as §1, §2

Caki-1 = experiment: Cancer cell panel, cell viability (resazurin): Renal, Caki-1; conditions: Caki-1 (Renal), 72 hours; labelled drug combined with Example 3

N.N.[Cl][Pt][Cl] [Cisplatin, cisplatin]
synergy, additivity or antagonism of the combination of Example 3 with the anti-cancer drug (H1299): + (Additive relative to each agent alone (CI = 0.9-1 by Bliss Independence Model and <0.9 by Highest Single Agent Model)) | synergy, additivity or antagonism of the combination of Example 3 with the anti-cancer drug (NAMALWA): + (Additive relative to each agent alone (CI = 0.9-1 by Bliss Independence Model and <0.9 by Highest Single Agent Model)) | synergy, additivity or antagonism of the combination of Example 3 with the anti-cancer drug (PC3): + (Additive relative to each agent alone (CI = 0.9-1 by Bliss Independence Model and <0.9 by Highest Single Agent Model)) | synergy, additivity or antagonism of the combination of Example 3 with the anti-cancer drug (HL60): + (Additive relative to each agent alone (CI = 0.9-1 by Bliss Independence Model and <0.9 by Highest Single Agent Model)) | synergy, additivity or antagonism of the combination of Example 3 with the anti-cancer drug (DLD-1): + (Additive relative to each agent alone (CI = 0.9-1 by Bliss Independence Model and <0.9 by Highest Single Agent Model)) | synergy, additivity or antagonism of the combination of Example 3 with the anti-cancer drug (LoVo): + + (Slight synergy relative to each agent alone (CI = 0.75-0.9 by Bliss Independence Model)) | synergy, additivity or antagonism of the combination of Example 3 with the anti-cancer drug (H460): + + (Slight synergy relative to each agent alone (CI = 0.75-0.9 by Bliss Independence Model)) | synergy, additivity or antagonism of the combination of Example 3 with the anti-cancer drug (WM-115): + + (Slight synergy relative to each agent alone (CI = 0.75-0.9 by Bliss Independence Model)) | synergy, additivity or antagonism of the combination of Example 3 with the anti-cancer drug (Caki-2): + (Additive relative to each agent alone (CI = 0.9-1 by Bliss Independence Model and <0.9 by Highest Single Agent Model)) | synergy, additivity or antagonism of the combination of Example 3 with the anti-cancer drug (SkBr-3): + + (Slight synergy relative to each agent alone (CI = 0.75-0.9 by Bliss Independence Model)) | synergy, additivity or antagonism of the combination of Example 3 with the anti-cancer drug (BT-20): + + (Slight synergy relative to each agent alone (CI = 0.75-0.9 by Bliss Independence Model)) | synergy, additivity or antagonism of the combination of Example 3 with the anti-cancer drug (Colo205): + + (Slight synergy relative to each agent alone (CI = 0.75-0.9 by Bliss Independence Model)) | synergy, additivity or antagonism of the combination of Example 3 with the anti-cancer drug (A375): + + (Slight synergy relative to each agent alone (CI = 0.75-0.9 by Bliss Independence Model)) | synergy, additivity or antagonism of the combination of Example 3 with the anti-cancer drug (LnCap): + + (Slight synergy relative to each agent alone (CI = 0.75-0.9 by Bliss Independence Model)) | synergy, additivity or antagonism of the combination of Example 3 with the anti-cancer drug (U87MG): + (Additive relative to each agent alone (CI = 0.9-1 by Bliss Independence Model and <0.9 by Highest Single Agent Model)) | synergy, additivity or antagonism of the combination of Example 3 with the anti-cancer drug (Caov-3): + (Additive relative to each agent alone (CI = 0.9-1 by Bliss Independence Model and <0.9 by Highest Single Agent Model)) | synergy, additivity or antagonism of the combination of Example 3 with the anti-cancer drug (Daudi): + (Additive relative to each agent alone (CI = 0.9-1 by Bliss Independence Model and <0.9 by Highest Single Agent Model)) | synergy, additivity or antagonism of the combination of Example 3 with the anti-cancer drug (A2780): + + + + (Strong synergy relative to each agent alone (CI < 0.4 by Bliss Independence Model)) | synergy, additivity or antagonism of the combination of Example 3 with the anti-cancer drug (U266): + (Additive relative to each agent alone (CI = 0.9-1 by Bliss Independence Model and <0.9 by Highest Single Agent Model)) | synergy, additivity or antagonism of the combination of Example 3 with the anti-cancer drug (786-O): + + (Slight synergy relative to each agent alone (CI = 0.75-0.9 by Bliss Independence Model)) | synergy, additivity or antagonism of the combination of Example 3 with the anti-cancer drug (Mia-Paca-2): + (Additive relative to each agent alone (CI = 0.9-1 by Bliss Independence Model and <0.9 by Highest Single Agent Model)) | synergy, additivity or antagonism of the combination of Example 3 with the anti-cancer drug (MOLT4): + + (Slight synergy relative to each agent alone (CI = 0.75-0.9 by Bliss Independence Model)) | synergy, additivity or antagonism of the combination of Example 3 with the anti-cancer drug (HCT116): + (Additive relative to each agent alone (CI = 0.9-1 by Bliss Independence Model and <0.9 by Highest Single Agent Model)) | synergy, additivity or antagonism of the combination of Example 3 with the anti-cancer drug (Panc-1): + (Additive relative to each agent alone (CI = 0.9-1 by Bliss Independence Model and <0.9 by Highest Single Agent Model)) | synergy, additivity or antagonism of the combination of Example 3 with the anti-cancer drug (ZR-75-1): + (Additive relative to each agent alone (CI = 0.9-1 by Bliss Independence Model and <0.9 by Highest Single Agent Model)) | synergy, additivity or antagonism of the combination of Example 3 with the anti-cancer drug (MDA-MB-157): + + + (Synergy relative to each agent alone (CI = 0.4-0.74 by Bliss Independence Model)) | synergy, additivity or antagonism of the combination of Example 3 with the anti-cancer drug (H23): + + + (Synergy relative to each agent alone (CI = 0.4-0.74 by Bliss Independence Model)) | synergy, additivity or antagonism of the combination of Example 3 with the anti-cancer drug (SKOV-3): + (Additive relative to each agent alone (CI = 0.9-1 by Bliss Independence Model and <0.9 by Highest Single Agent Model)) | synergy, additivity or antagonism of the combination of Example 3 with the anti-cancer drug (H1975): + (Additive relative to each agent alone (CI = 0.9-1 by Bliss Independence Model and <0.9 by Highest Single Agent Model)) | synergy, additivity or antagonism of the combination of Example 3 with the anti-cancer drug (Raji): + + (Slight synergy relative to each agent alone (CI = 0.75-0.9 by Bliss Independence Model)) | synergy, additivity or antagonism of the combination of Example 3 with the anti-cancer drug (SK-MEL-24): + + (Slight synergy relative to each agent alone (CI = 0.75-0.9 by Bliss Independence Model)) | synergy, additivity or antagonism of the combination of Example 3 with the anti-cancer drug (T47D): + (Additive relative to each agent alone (CI = 0.9-1 by Bliss Independence Model and <0.9 by Highest Single Agent Model)) | synergy, additivity or antagonism of the combination of Example 3 with the anti-cancer drug (EOL-1): + + (Slight synergy relative to each agent alone (CI = 0.75-0.9 by Bliss Independence Model)) | synergy, additivity or antagonism of the combination of Example 3 with the anti-cancer drug (MeWO): + (Additive relative to each agent alone (CI = 0.9-1 by Bliss Independence Model and <0.9 by Highest Single Agent Model)) | synergy, additivity or antagonism of the combination of Example 3 with the anti-cancer drug (MDA-MB-231): + (Additive relative to each agent alone (CI = 0.9-1 by Bliss Independence Model and <0.9 by Highest Single Agent Model)) | synergy, additivity or antagonism of the combination of Example 3 with the anti-cancer drug (SK-MEL-3): + (Additive relative to each agent alone (CI = 0.9-1 by Bliss Independence Model and <0.9 by Highest Single Agent Model)) | synergy, additivity or antagonism of the combination of Example 3 with the anti-cancer drug (A549): + + + + (Strong synergy relative to each agent alone (CI < 0.4 by Bliss Independence Model)) | synergy, additivity or antagonism of the combination of Example 3 with the anti-cancer drug (H2122): + + (Slight synergy relative to each agent alone (CI = 0.75-0.9 by Bliss Independence Model)) | synergy, additivity or antagonism of the combination of Example 3 with the anti-cancer drug (MDA-MB-453): + + (Slight synergy relative to each agent alone (CI = 0.75-0.9 by Bliss Independence Model)) | synergy, additivity or antagonism of the combination of Example 3 with the anti-cancer drug (ACHN): + (Additive relative to each agent alone (CI = 0.9-1 by Bliss Independence Model and <0.9 by Highest Single Agent Model)) | synergy, additivity or antagonism of the combination of Example 3 with the anti-cancer drug (BxPC3): + (Additive relative to each agent alone (CI = 0.9-1 by Bliss Independence Model and <0.9 by Highest Single Agent Model)) | synergy, additivity or antagonism of the combination of Example 3 with the anti-cancer drug (Caki-1): + (Additive relative to each agent alone (CI = 0.9-1 by Bliss Independence Model and <0.9 by Highest Single Agent Model))
